Test results from patent US20230104503A1, “SMALL MOLECULE COMPOUNDS” (THE REGENTS OF THE UNIVERSITY OF CALIFORNIA, priority 2021, published 2023).

Columns and labels:
[1] = system: mTOR; assay: Phospho-flow (FACS) of phospho-p70S6K / p-S6 in activated mouse T-cells; format: cell-based
Experimental: Whole splenocyte from OT1 B6 mice was extracted. […] Cells were activated with compounds for 30 mins, 1 hour, 2 hours, and overnight. For each time point, p-S6, a downstream of mTORC1 pathway, was gated on low and high based on the DMSO and no stimulation control.

[2] = system: CD8 cells isolated from p14 transgenic mice; assay: CD8 CTV-labelled proliferation assay; format: cell-based, mouse; conditions: activated for 72 hours; relative to RAP35 and rapamycin
Experimental: The five analogs and rapamycin were assayed for their effect on proliferation and correlation to p70S6K inhibitory activity. […] The proliferation was measured by FACS. The five analogs were tested at varying concentrations (10 nM, 100 nM, and 100 μM), activated for 72 hours with rapamycin and DMSO treated controls.
CD8 cells were isolated from p14 transgenic mice, then labelled with CTV. The labelled cells then were activated with plate-bound anti-CD3 (5 μg/mL) and soluble anti-CD28 (2 μg/mL), along with rapamycin, rapamycin analog, or DMSO. After activation of 48 hours and 72 hours, the cells were collected to assay the CVT labelling signal using flow cytometry. All rapamycin analogs decrease proliferation in CD8 cells, with varying potency (FIG. 12).

[3] = system: naïve CD4+ mouse T-cells; assay: FACS for expansion of CD62L+ memory T-cells; format: cell-based
Experimental: RAP23 was further evaluated by treating naïve CD4+ T-cells at multiple concentrations (1 nM to 1 uM) for expansion of CD62L+ memory T-cells. […] These 5 compounds were identified to have reduced immunosuppression (with improved safety) with maximum and durable expansion of memory T-cells.

[4] = Stability during semi-preparative HPLC; format: physicochemical; conditions: 65% acetonitrile with 35% water, 50° C.
Experimental: The crude was then dissolved in acetonitrile, and the resulting solution was subjected to semi-preparation using an Agilent Zorbax column (SB-C18, 5 μm, 9.4×250 mm, Agilent Technologies Inc., CA) heated to 50° C. by isocratic elution of 65% acetonitrile with 35% water at a flow rate of 3.5 mL/min. The absorbance at 278 nm wavelength was monitored.

[5] = system: Treg cells; assay: Treg assays for RAP35: Treg cells with expander beads; format: cell-based; conditions: 100 nM
[6] = system: naïve CD4+ mouse T cells; assay: FACS of stimulated naïve CD4+ mouse T-cells for CD4+CD25+FOXP3+; conditions: 1 uM
[7] = system: conventional T cells; assay: Treg assays for RAP35: culture of conventional T cells; format: cell-based
[8] = humans; cited from earlier work

SMILES: CO[C@H]1C[C@@H]2CC[C@@H](C)[C@@](O)(O2)C(=O)C(=O)N2CCCC[C@H]2C(=O)O[C@H]([C@H](C)C[C@@H]2CC[C@@H](O)[C@H](OC)C2)CC(=O)[C@H](C)/C=C(\C)[C@@H](O)[C@@H](OC)C(=O)[C@H](C)CC/C=C/C=C/C=C/1C [RAP23, (3S,6R,7E,9R,10R,12R,15E,17E,19E,21S,23S,26R,27R,34aS)-9,27-dihydroxy-3-((R)-1-((1S,3R,4R)-4-hydroxy-3-methoxycyclohexyl)propan-2-yl)-10,21-dimethoxy-6,8,12,20,26-pentamethyl-9,10,12,13,14,21,22,23,24,25,26,27,32,33,34,34a-hexadecahydro-3H-23,27-epoxypyrido[2,1-c][1]oxa[4]azacyclohentriacontine-1,5,11,28,29(4H,6H,31H)-pentaone]
- inhibition of the p70S6 high signal ([1]; even at 1 uM): never fully inhibited
- proliferation of CTV-labelled CD8 cells [2]: increased proliferation
- portion of cells possessing a phospho-p70S6K high/CD62L+high phenotype ([3]; 1 nM to 1 uM): 7-10%
- generation of memory versus inhibition of proliferation ([3]; overall assessment): promote potent generation of memory without potently inhibiting proliferation
- phospho-p70S6K low/CD62L+high phenotype ([3]; relative to all doses of rapamycin (including 1 nM)): reduced

SMILES: CO[C@H]1C[C@@H]2CC[C@@H](C)[C@@](O)(O2)C(=O)C(=O)N2CCCC[C@H]2C(=O)O[C@H](CC[C@@H]2CC[C@@H](O)[C@H](OC)C2)CC(=O)[C@H](C)/C=C(\C)[C@@H](O)CC(=O)[C@H](C)C[C@H](C)/C=C/C=C/C=C/1C [RAP35/27A, (3R,6R,7E,9S,12R,14S,15E,17E,19E,21S,23S,26R,27R,34aS)-9,27-dihydroxy-3-(2-((1S,3R,4R)-4-hydroxy-3-methoxycyclohexyl)ethyl)-21-methoxy-6,8,12,14,20,26-hexamethyl-9,10,12,13,14,21,22,23,24,25,26,27,32,33,34,34a-hexadecahydro-3H-23,27-epoxypyrido[2,1-c][1]oxa[4]azacyclohentriacontine-1,5,11,28,29(4H,6H,31H)-pentaone]
- stability in the process of semi-preparation [4]: tended to be unstable

SMILES: CO[C@H]1C[C@@H]2CC[C@@H](C)[C@@](O)(O2)C(=O)C(=O)N2CCCC[C@H]2C(=O)O[C@H](CC[C@@H]2CC[C@@H](O)[C@H](OC)C2)CC(=O)[C@H](C)/C=C(\C)[C@@H](O)[C@@H](OC)C(=O)[C@H](C)C[C@H](C)/C=C/C=C/C=C/1C [RAP35, (3R,6R,7E,9R,10R,12R,14S,15E,17E,19E,21S,23S,26R,27R,34aS)-9,27-dihydroxy-3-(2-((1S,3R,4R)-4-hydroxy-3-methoxycyclohexyl)ethyl)-10,21-dimethoxy-6,8,12,14,20,26-hexamethyl-9,10,12,13,14,21,22,23,24,25,26,27,32,33,34,34a-hexadecahydro-3H-23,27-epoxypyrido[2,1-c][1]oxa[4]azacyclohentriacontine-1,5,11,28,29(4H,6H,31H)-pentaone]
- p70S6 high cells ([1]; following overnight stimulation, therapeutic concentrations (1-200 nM)): significantly reduced
- frequency of Treg cells [5]: reduce
- expression of CCR7 ([5]; Treg cells): reduce
- expression of CD45RO ([5]; Treg cells): reduce
- expression of CXCR3 ([5]; Treg cells): reduce
- phosphorylation of 4EBP1 ([5]; Treg cells): reduce
- phosphorylation of S6 ([5]; Treg cells): reduce
- FOXP3+ count [6]: 45.8
- anti-inflammatory effects (Cell Proliferation Dye and phenotypic markers) ([7]; 100 nM): promising anti-inflammatory effects
- CCR7 expression ([7]; 100 nM, conventional T cells): increased
- CD45RO expression ([7]; 100 nM, conventional T cells): decreased
- mitochondrial membrane potential (MitoProbe) ([7]; compared to stimulated CD3 T cells): reduced

SMILES: CO[C@H]1C[C@@H]2CC[C@@H](C)[C@@](O)(O2)C(=O)C(=O)N2CCCC[C@H]2C(=O)O[C@H]([C@H](C)C[C@@H]2CC[C@@H](O)[C@H](OC)C2)CC(=O)[C@H](C)/C=C(\C)[C@@H](O)[C@@H](OC)C(=O)[C@H](C)C[C@H](C)/C=C/C=C/C=C/1C [rapamycin, reference compound]
- FOXP3+ count [6]: 53.3
- terminal half-life [8]: 24 to 48 h
